The nature of this series: Measurement of logP values by HPLC on reversed phase columns (EEC directive 79/831 Annex V.A8). The series is classed as physicochemical. The conditions noted are these: for chromatographic logP: reversed phase HPLC column.
[1] abbreviates: method [b]: LC-MS at pH 2.7 with 0.1% formic acid in water and acetonitrile, linear gradient 10% to 95% acetonitrile.

Like-named read-outs stand apart in the source and are kept apart here.

On to `Cn1nccc1C(=NOCc1csc(NC(=O)Cc2ccccc2)n1)c1ccccc1` [Example 53], for which the logp under setting [1] was 3.42^[b].
`CCCCC(=O)Nc1nc(CON=C(c2ccccc2)c2ccnn2C)cs1` [Example 55]: the logp under setting [1] is 3.39^[b].
As to `Cc1nsnc1C(=NOCc1cccc(NC(=O)OC(C)(C)C)n1)c1ccccc1` [Example 30, tert-butyl {6-[({[(4-methyl-1,2,5-thiadiazol-3-yl)(phenyl)methylene]-amino}oxy)methyl]pyridin-2-yl}carbamate], the chromatographic logP was 4.97 (HCOOH (formic acid) method, read-out: log P(HCOOH)); 4.97 (method [b]: LC-MS at pH 2.7 with 0.1% formic acid in water and acetonitrile, linear gradient 10% to 95% acetonitrile, read-out: logp).
In the case of `CCCCCNc1cccc(CON=C(c2ccccc2)c2nsnc2C)n1` [Example 38], the logp under setting [1] is 2.7^[b].
Turning to `CCCCC#Cc1nc(CON=C(c2cccc(F)c2)c2nnsc2C)cs1` [Example 7], the logp under setting [1] was 5.25^[b].
Consider `CCCCCC(=O)Nc1ccnc(CON=C(c2ccccc2)c2nsnc2C(F)(F)F)n1` [Example 17], for which the logp (method [a]: pH 2.3 with 0.1% phosphoric acid and acetonitrile as eluent) is 4.54^[a].
For `Cc1nsnc1C(=NOCc1cccc(NCCCc2ccccc2)n1)c1ccccc1` [Example 36], the logp under setting [1] was 2.98^[b].

(Values after patent US8580799B2 (priority 2008, dated 2013).)
